Reference: US8076329B2, “Histamine H3-receptor ligands and their therapeutic applications” (Bioprojet, priority 2005, dated 2011)
Where “and” joins values, the source holds several entries; their conditions need not be identical. Identical values can stand only once. Counter-ions that a name gives are not always drawn.

Key:
[1] = target: CYP3A4 (Homo sapiens, UniProt P08684); assay: Cytochrome inhibition, fluorometric microtiter plate assay; type: in vitro ADME; settings: CYP3A4 cytochrome inhibition (IC50, concentrations in μM for 50% inhibition), human recombinant CYP3A4, substrate BFC, compounds of the invention
Chain of CYP3A4 (P08684 whole entry, canonical isoform): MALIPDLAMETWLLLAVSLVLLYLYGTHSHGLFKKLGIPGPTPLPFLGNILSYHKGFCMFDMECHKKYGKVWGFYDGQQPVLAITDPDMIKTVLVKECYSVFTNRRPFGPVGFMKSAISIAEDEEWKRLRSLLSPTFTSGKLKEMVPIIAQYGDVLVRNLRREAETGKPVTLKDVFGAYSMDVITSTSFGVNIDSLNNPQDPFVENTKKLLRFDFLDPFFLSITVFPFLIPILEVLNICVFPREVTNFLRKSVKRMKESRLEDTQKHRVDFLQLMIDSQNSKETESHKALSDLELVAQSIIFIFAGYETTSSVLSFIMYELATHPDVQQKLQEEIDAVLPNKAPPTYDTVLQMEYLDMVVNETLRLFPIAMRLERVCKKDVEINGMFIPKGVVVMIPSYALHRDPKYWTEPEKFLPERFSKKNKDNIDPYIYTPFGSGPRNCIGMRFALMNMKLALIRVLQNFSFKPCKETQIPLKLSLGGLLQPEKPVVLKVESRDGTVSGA
Experimental: (§1) The ability of drug in human to inhibit the catalytic activity of cytochrome P-450 isoforms was assayed using microtiter plate-based, fluorometric assays for the activities of the five human major CYP forms. Inhibition potential was determined in vitro after incubation of fluorescent model substrates over various incubation time with human recombinant cytochrome isoforms in the absence or in presence of increasing concentrations of test molecules (from 1 nM to 100 μM), in comparison with specific CYP isoform inhibitors.
(§2) Incubation of drug was carried out at 37° C.±0.5° C. under agitation in the presence of human recombinant cytochrome P-450 isoforms and a NADPH generating system. The incubation conditions for each cytochrome isoform were as follows: […]

[2] = target: CYP2D6 (Homo sapiens, UniProt P10635); assay: as above; type: in vitro ADME; settings: CYP2D6 cytochrome inhibition (IC50, concentrations in μM for 50% inhibition), human recombinant CYP2D6, substrate AMMC, compounds of the invention
Chain of CYP2D6 (P10635 whole entry): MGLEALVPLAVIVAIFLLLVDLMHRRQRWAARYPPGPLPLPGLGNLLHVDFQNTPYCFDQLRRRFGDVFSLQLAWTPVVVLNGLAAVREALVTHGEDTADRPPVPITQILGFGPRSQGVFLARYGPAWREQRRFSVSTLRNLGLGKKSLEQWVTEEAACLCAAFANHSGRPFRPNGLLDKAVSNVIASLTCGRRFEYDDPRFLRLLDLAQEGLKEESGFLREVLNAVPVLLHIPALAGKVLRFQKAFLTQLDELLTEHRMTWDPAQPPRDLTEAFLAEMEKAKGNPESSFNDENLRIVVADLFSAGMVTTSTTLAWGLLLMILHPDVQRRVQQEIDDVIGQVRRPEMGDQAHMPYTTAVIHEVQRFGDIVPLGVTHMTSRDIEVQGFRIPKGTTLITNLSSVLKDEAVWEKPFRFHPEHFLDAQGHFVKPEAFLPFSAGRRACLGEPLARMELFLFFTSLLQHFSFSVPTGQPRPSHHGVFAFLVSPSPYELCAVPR
Experimental: as §1, §2

[3] = target: human histamine H3 receptors (Homo sapiens, UniProt Q9Y5N1); assay: H3 binding ([125I]iodoproxyfan displacement on membranes); settings: compounds of the invention; membranes expressing human H3 receptors
Chain of human histamine H3 receptors (Q9Y5N1 whole entry): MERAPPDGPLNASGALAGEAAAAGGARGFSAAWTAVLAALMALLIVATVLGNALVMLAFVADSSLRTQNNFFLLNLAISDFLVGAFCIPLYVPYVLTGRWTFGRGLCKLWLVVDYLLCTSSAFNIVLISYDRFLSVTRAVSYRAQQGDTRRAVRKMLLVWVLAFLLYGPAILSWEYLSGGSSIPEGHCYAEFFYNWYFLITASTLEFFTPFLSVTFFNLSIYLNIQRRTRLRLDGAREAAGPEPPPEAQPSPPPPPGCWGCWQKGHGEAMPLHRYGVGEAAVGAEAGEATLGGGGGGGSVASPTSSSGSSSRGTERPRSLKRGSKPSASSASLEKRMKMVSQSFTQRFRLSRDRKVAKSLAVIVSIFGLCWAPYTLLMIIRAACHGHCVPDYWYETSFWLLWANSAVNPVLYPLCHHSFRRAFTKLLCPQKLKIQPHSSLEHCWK
Experimental: Membranes expressing human histamine H3 receptors were incubated 1 hour at room temperature in binding buffer containing 50 mM Na2HPO4/KH2PO4 pH 7.5 in a final volume of 200 μl. […] The reaction was stopped by rapid filtration through GF/B filters (pre-soaked for 2 hours with 0.3% polyethyleneimine) followed by 3 ice cold binding buffer washes. The filter-bound radioactivity was measured in a liquid scintillation counter with 50 μl of scintillation fluid.

Structure (SMILES) | melting point [°C] | IC50 [1] | IC50 [2] | Ki [3] [pM] | IC50 ([1]; human, recombinant human CYP3A4, probe BFC) [µM] | IC50 ([2]; human, recombinant human CYP2D6, probe AMMC) [µM]
Cc1ccc(-c2ccc(OCCCN3CCCCC3)cc2)cc1.O=C(O)C(=O)O [Example 24, 1-{3-[(4′-methylbiphenyl-4-yl)oxy]propyl}piperidine] | 195 | > 10 µM | > 10 µM | 3500 |  | 
C[C@H]1CCCN(CCCOc2ccc(-c3ccnc(OCCCN4CCCCC4)c3)cc2)C1 [Example 58, 2-(3-piperidinopropoxy)-4-(4-{3-[(3S)-3-methylpiperidin-1-yl]propoxy}phenyl)-pyridine] |  | > 10 µM | > 10 µM | 61 |  | 
c1cc(-c2ccc(OCCCN3CCCCC3)cc2)ccc1CCCN1CCCCC1 (as salt: oxalate) [Example 48] | 130 |  |  |  |  | 
C[C@@H]1C[C@@H](C)CN(CCCOc2ccc(C3=NCCC3)cc2)C1 (relative stereo) [Example 17, trans-1-{3-[4-(4,5-dihydro-3H-pyrrol-2-yl)phenoxy]propyl}-3,5-dimethylpiperidine] |  |  |  | 430 |  | 
O=C(c1ccccc1)c1ccc(OCCCN2CCCCC2)cc1 [Example 3] |  | 18 µM | 32 µM | 1100 |  | 
C[C@H]1CCCN(CCCOc2ccc(C3CCC(N4CCOCC4)CC3)cc2)C1 (single isomer, unassigned) [Example 41, dihydrochloride] |  | > 1 µM and 13 µM | > 10 µM and 14 µM | 130 |  | 
Cc1cc(-c2ccc(OCCCN3CCC[C@H](C)C3)cc2)ccn1.O=C(O)C(=O)O.O=C(O)C(=O)O [Example 59, 2-methyl-4-(4-{3-[(3S)-3-methylpiperidin-1-yl]propoxy}phenyl)pyridine] | 97 | > 10 µM | > 10 µM |  |  | 
C[C@H]1C[C@H](C)CN(CCCOc2ccc([C@H]3CC[C@H](N(C)C)CC3)cc2)C1 (as salt: hydrochloride) [Example 12, (3S,5S)-1-{3-[4-(trans-4-dimethylaminocyclohex-1-yl)phenoxy]propyl}-3,5-dimethylpiperidine] | 240 |  |  |  |  | 
C[C@H]1CCCN(CCCOc2ccc([C@H]3CC[C@H](O)CC3)cc2)C1 [Example 62, (3S)-1-{3-[4-(4-hydroxycyclohexyl)phenoxy]propyl}-3-methylpiperidine] |  |  |  | 554 |  | 
CC1CCCN1CCCOc1ccc([C@H]2CC[C@H](O)CC2)cc1 (stereo partly drawn) [Example 66, 1-{3-[trans-4-(4-hydroxycyclohexyl)phenoxy]propyl}-2-methylpyrrolidine] |  | > 10 µM | > 10 µM | 830 |  | 
C[C@H]1CCCN(CCCOc2ccc(-c3ccnc(Cl)c3)cc2)C1.O=C(O)C(=O)O.O=C(O)C(=O)O [Example 56, 2-chloro-4-(4-{3-[(3S)-3-methylpiperidin-1-yl]propoxy}phenyl)pyridine] | 143 | > 1 µM | > 10 µM |  |  | 
C(#Cc1ccc(OCCCN2CCCCC2)cc1)CCN1CCCCC1.O=C(O)C(=O)O.O=C(O)C(=O)O [Example 43, 1-{3-[4-(4-Piperidinobut-1-yn-1-yl)phenoxy]propyl}piperidine] | 167 | > 10 µM | > 1 µM |  |  | 
C[C@H]1CCCN(CCCOc2ccc(-c3ccnc(O)c3)cc2)C1.O=C(O)C(=O)O [Example 55, 2-hydroxy-4-(4-{3-[(3S)-3-methylpiperidin-1-yl]propoxy}phenyl)pyridine] | 110 | > 10 µM | > 10 µM |  |  | 
Cc1cc(-c2ccc(OCCCN3CCC[C@H](C)C3)cc2)cc[n+]1[O-] [Example 54, 2-methyl-4-(4-{3-[(3S)-3-methylpiperidin-1-yl]propoxy}phenyl)pyridine 1-oxide] |  | > 1 µM | > 10 µM | 400 |  | 
c1cc(-c2ccc(OCCCN3CCCCC3)cc2)ccc1OCCCN1CCCCC1 [Example 35, di-1,1′-{(biphenyl-4,4′-diyl)bis[oxy(propan-1,3-diyl)]}piperidine] |  | 5 µM | 71 µM | 100 |  | 
C[C@H]1C[C@H](C)CN(CCCOc2ccc(C(=O)N(C)C)cc2)C1 (relative stereo) [Example 1, trans-1-{3-[4-(N,N-dimethylcarbamoyl)phenoxy]propyl}-3,5-dimethylpiperidine] |  | 32 µM | > 10 µM | 2900 |  | 
CC1CCCN1CCCOc1ccc([C@H]2CC[C@H](O)CC2)cc1 (stereo partly drawn) (as salt: oxalate) [Example 66, 1-{3-[trans-4-(4-hydroxycyclohexyl)phenoxy]propyl}-2-methylpyrrolidine] | 80 |  |  |  |  | 
c1cc(-c2ccc(OCCCN3CCCC3)cc2)ccc1OCCCN1CCCCC1 [Example 37, 1-(3-{[4′-(3-piperidinopropoxy)biphenyl-4-yl]oxy}propyl)pyrrolidine] | 105 to 108 | 15 µM | > 10 µM |  |  | 
c1cc([C@H]2CC[C@H](N3CCCC3)CC2)ccc1OCCCN1CCCCC1 [Example 19, 1-{3-[4-(cis-4-tetramethylenaminocyclohex-1-yl)phenoxy]propyl}piperidine, dioxalate and 1-{3-[4-(trans-4-tetramethylenaminocyclohex-1-yl)phenoxy]propyl}-piperidine, dioxalate] |  | 42 µM and 48 µM | > 10 µM |  |  | 
C[C@@H]1C[C@@H](C)CN(CCCOc2ccc(C(C)(C)O)cc2)C1 (relative stereo) [Example 5, trans-1-{3-[4-(1-hydroxy-1-methylethyl)phenoxy]propyl}-3,5-dimethylpiperidine] |  | 67 µM | > 10 µM |  |  | 
c1cc(-c2ccc(OCCCN3CCOCC3)cc2)ccc1OCCCN1CCCCC1 [Example 36, 4-(3-{[4′-(3-piperidinopropoxy)biphenyl-4-yl]oxy}propyl)morpholine] |  | 3 µM | > 10 µM |  |  | 
C[C@H]1C[C@H](C)CN(CCCOc2ccc([C@H]3CC[C@H](N(C)C)CC3)cc2)C1 [Example 12, (3S,5S)-1-{3-[4-(trans-4-dimethylaminocyclohex-1-yl)phenoxy]propyl}-3,5-dimethylpiperidine] |  | 28 µM | > 10 µM |  |  | 
c1ccc(-c2ccc(OCCCN3CCCC3)cc2)cc1 [Example 21, 1-{3-[(biphenyl-4-yl)oxy]propyl}pyrrolidine] |  | > 10 µM | > 10 µM |  |  | 

Other lines, results leading:

melting point [°C] | IC50 [1] | IC50 [2] | Ki [3] [pM] | IC50 ([1]; human, recombinant human CYP3A4, probe BFC) [µM] | IC50 ([2]; human, recombinant human CYP2D6, probe AMMC) [µM] | Structure (SMILES)
90 | > 10 µM | > 10 µM |  |  |  | c1cc(-c2ccc(OCCCN3CCCCC3)cc2)ccc1CN1CCCCC1 [Example 42, 1-(3-{[4′-(piperidinomethyl)biphenyl-4-yl]oxy}propyl)piperidine]
 |  |  | 350 |  |  | CCN1CCCC(OCc2ccc(OCCCN3CCCCC3)cc2)C1 (stereo not shown) [Example 70, 1-ethyl-3-[4-(3-piperidinopropoxy)benzyloxy]piperidine]
 | > 100 µM | 24 µM | 880 |  |  | c1cc(-c2ccc(OCCCN3CCCCC3)cc2)cs1 [Example 29, 1-{3-[4-(3-thienyl)phenoxy]propyl}piperidine]
 |  |  | 530 | 10 | 10 | Cc1ccccc1-c1ccc(OCCCN2CCCCC2)cc1 [Example 28, 1-{3-[(2′-methylbiphenyl-4-yl)oxy]propyl}piperidine]
 | 9 µM | 7 µM | 220 |  |  | c1cncc(-c2ccc(OCCCN3CCCCC3)cc2)c1 [Example 32, 1-{3-[4-(3-pyridyl)phenoxy]propyl}piperidine]
 | > 10 µM | > 10 µM | 1190 |  |  | CN1CCC(CCOCc2ccc(OCCCN3CCCCC3)cc2)CC1 [Example 69, 1-methyl-4-{2-[4-(3-piperidinopropoxy)benzyloxy]ethyl}piperidine]
 | 20 µM | > 100 µM | 820 |  |  | OC1(c2ccc(OCCCN3CCCCC3)cc2)CCCC1 [Example 8, 1-{3-[4-(1-hydroxycyclopentyl)phenoxy]propyl}piperidine]
104 | 46 µM | > 10 µM |  |  |  | O=C(O)C(=O)O.O=C(O)C(=O)O.c1cc(C2=NCCCC2)ccc1OCCCN1CCCCC1 [Example 15, 6-[4-(3-piperidinopropoxy)phenyl]-2,3,4,5-tetrahydropyridine]
 | 4 µM | 39 µM | 740 |  |  | CCCC(O)(CCC)c1ccc(OCCCN2CCCCC2)cc1 [Example 7, 1-{3-[4-(1-hydroxy-1-propylbutyl)phenoxy]propyl}piperidine]
 | 37 µM | 107 µM |  |  |  | CN(C)[C@H]1CC[C@@H](Cc2ccc(OCCCN3CCCCC3)cc2)CC1 [Example 47, 1-{3-[4-(cis-4-dimethylaminocyclohex-1-yl)methylphenoxy]propyl}piperidine]
